{"source": "patent US7151200B2", "about": "“Histamine receptor H3 modified transgenic mice” (Ortho-McNeil Pharmaceutical, Inc., priority 2001, dated 2006)", "key": {"H3 receptor [1]": {"tested_on": "H3 receptor", "type": "in vivo, mouse", "procedure": "Individually housed animals were maintained on a 12:12 light/dark (LD) cycle except in one study when the animals were transferred to constant darkness (DD). At three months of age, animals were implanted under deep anesthesia (ketamine 100 mg/kg and xylamine 10 mg/kg administered intraperitoneally) with EEG and EMG electrodes for sleep monitoring, and intraperitoneal biotelemetry transducers for the recording of body temperature and total locomotor activity. Two weeks after surgery and habituation to the recording chamber, body temperature and locomotor activity were monitored in baseline conditions for two consecutive days. In order to test the functional activity of H3 receptors, the effects of the H3 receptor antagonist thioperamide on sleep-wake states were examined. Mice were injected with saline one day, and thioperamide the next day. Injections occurred at the onset of the light phase and sleep EEG was recorded for the next six hours. A second group of H3+/+ and H3−/− mice were placed in running wheel cages at three months of age. Locomotor activity was recorded for three weeks under LD12:12 conditions and then the animals were transferred to constant darkness for two weeks."}, "H3 receptor [2]": {"target": "H3 receptor", "settings": "for Kd: read-out: binding affinity, whole brain homogenates; for binding detected: mouse brain homogenates (H3−/− by context), even at high (>100 nM) concentrations", "procedure": "The mice were sacrificed by gas (CO2) and decapitated immediately. Brains were removed stored at −80° C. until use. The forebrain and the cerebellum tissue homogenized with a polytron in ice-cold 50 mM Na/K phosphate buffer, pH 7.5. The homogenates were centrifuged twice at 50,000×g for twenty minutes at 4° C.\nThe histamine H3 receptor binding was assayed by a modification of the method of Arrang et al. (1983) supra. Briefly, to examine inhibition curves, 0.4 ml aliquots of the suspensions (10 mg weight tissue) were incubated for sixty minutes at 25° C. with 1.5 nM [^3H]-R-alpha-MeHA. Specific binding was defined as that inhibited by 10 μM thioperamide. That reaction was terminated by addition of 5 ml of the ice-cold buffer and rapid filtration on a glass fiber filter (GF/B) pre-coated with 0.3% polyethyleneimine (Bruns et al., 1983). The filters were washed three times with 5 ml volumes of the ice-cold buffer, and the radioactivity trapped on the filters was counted in 10 ml of ScintiVerse (Fisher Scientific)."}, "H3+/+ and H3−/− mice": {"tested_on": "H3+/+ and H3−/− mice", "assay": "Step-through passive avoidance test with scopolamine-induced amnesia", "type": "in vivo, mouse", "settings": "scopolamine 0.75 mg/kg i.p. before first exposure, retest next day", "source_text": "The apparatus consisted of two compartments; one (9.5×18.5×16 cm) being surrounded by a white wall and illuminated by a 60 watt lamp, and the other (9.5×18.5×16 cm) being dark surrounded by a black wall. The compartments were separated by a guillotine door (4.5 5 4.5 cm). All the mice were habituated to the dark chamber for sixty minutes prior to the test. On the first day of the passive avoidance test, wild-type and knockout mice were divided into two groups. One group of each genotype was injected with scopolamine (0.75 mg/kg, i.p., thirty minutes before the session) while the other groups were injected with biological saline, 0.9% (w/v) NaCl, ([…], i.p.). The mice were placed into the illuminated safe compartment for thirty seconds before being given free access to the dark box. The mice tended to escape into the dark compartment. When all four paws were on the grid floor of the dark compartment, a scrambled constant current foot shock (1 mA, constant voltage 120 V, 50 Hz) was delivered to the grid for one second. Then the mice were returned to their home cages. Twenty-four hours later, the procedure, without the electric shock, was repeated. The time that elapsed before each mouse entered the dark compartment was measured."}, "[3]": {"settings": "H3+/+ mice, two-hour post injection period"}}, "note": "Entries after “also recorded” stand apart in the source; their conditions may differ. Where two headings read alike, the source gives them in different places."}
{"smiles": "S=C(NC1CCCCC1)N1CCC(c2cnc[nH]2)CC1", "note": "[thioperamide]", "values": [{"measurement": "increase in waking", "setting": "H3 receptor [1]; H3+/+ mice, first two hours after administration at lights on", "value": 55, "unit": "%"}, {"measurement": "decrease in non-rapid eye movement (NREM) sleep", "setting": "H3 receptor [1]; [3]", "value": 61, "unit": "%"}, {"measurement": "effect on REM sleep", "setting": "H3 receptor [1]; [3]", "value": "not affected"}, {"measurement": "effects on sleep-wake status", "setting": "H3 receptor [1]; H3−/− mice", "value": "no effects; also recorded: insensitive"}]}
{"smiles": "[3H]CNCCc1cnc[nH]1", "note": "[^3H-N-α-methylhistamine]", "values": [{"measurement": "binding detected", "setting": "H3 receptor [2]", "value": "No binding could be detected"}]}
{"smiles": "CN1[C@@H]2C[C@@H](OC(=O)[C@H](CO)c3ccccc3)C[C@H]1[C@@H]1O[C@@H]12", "note": "[scopolamine]", "values": [{"measurement": "recall of aversive stimulus (amnesic effect) in passive avoidance", "setting": "H3+/+ and H3−/− mice; H3+/+ mice", "value": "failed to recall the aversive stimulus"}, {"measurement": "response to amnesic effect in passive avoidance", "setting": "H3+/+ and H3−/− mice; H3−/− mice", "value": "decreased sensitivity; also recorded: completely unresponsive to the amnesic effects"}]}
{"smiles": "NCCc1cnc[nH]1", "note": "[^3H-histamine]", "values": [{"measurement": "binding detected", "setting": "H3 receptor [2]", "value": "No binding could be detected"}]}
